Bounds are passed on as bounds.

Drawing on US20140058103A1, “Inhibitors of PI3K-Delta and Methods of Their Use and Manufacture” (Exelixis, Inc., priority 2010, published 2014), this text covers IC50 for 25 molecules.

The target in the experiment is PI3K delta (Homo sapiens, UniProt O00329). The experiment in a line: Luciferase-coupled chemiluminescence kinase assay (ATP consumption, KinaseGlo). The class given is biochemical. The gist of the method: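 ATP consumption measured by KinaseGlo luciferase chemiluminescence after a 2 h reaction at ambient temperature, with ATP at or below the kinase KM. Ten inhibitor concentrations per curve; IC50 from four-parameter nonlinear regression.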
Sequence of PI3K delta (O00329 whole entry): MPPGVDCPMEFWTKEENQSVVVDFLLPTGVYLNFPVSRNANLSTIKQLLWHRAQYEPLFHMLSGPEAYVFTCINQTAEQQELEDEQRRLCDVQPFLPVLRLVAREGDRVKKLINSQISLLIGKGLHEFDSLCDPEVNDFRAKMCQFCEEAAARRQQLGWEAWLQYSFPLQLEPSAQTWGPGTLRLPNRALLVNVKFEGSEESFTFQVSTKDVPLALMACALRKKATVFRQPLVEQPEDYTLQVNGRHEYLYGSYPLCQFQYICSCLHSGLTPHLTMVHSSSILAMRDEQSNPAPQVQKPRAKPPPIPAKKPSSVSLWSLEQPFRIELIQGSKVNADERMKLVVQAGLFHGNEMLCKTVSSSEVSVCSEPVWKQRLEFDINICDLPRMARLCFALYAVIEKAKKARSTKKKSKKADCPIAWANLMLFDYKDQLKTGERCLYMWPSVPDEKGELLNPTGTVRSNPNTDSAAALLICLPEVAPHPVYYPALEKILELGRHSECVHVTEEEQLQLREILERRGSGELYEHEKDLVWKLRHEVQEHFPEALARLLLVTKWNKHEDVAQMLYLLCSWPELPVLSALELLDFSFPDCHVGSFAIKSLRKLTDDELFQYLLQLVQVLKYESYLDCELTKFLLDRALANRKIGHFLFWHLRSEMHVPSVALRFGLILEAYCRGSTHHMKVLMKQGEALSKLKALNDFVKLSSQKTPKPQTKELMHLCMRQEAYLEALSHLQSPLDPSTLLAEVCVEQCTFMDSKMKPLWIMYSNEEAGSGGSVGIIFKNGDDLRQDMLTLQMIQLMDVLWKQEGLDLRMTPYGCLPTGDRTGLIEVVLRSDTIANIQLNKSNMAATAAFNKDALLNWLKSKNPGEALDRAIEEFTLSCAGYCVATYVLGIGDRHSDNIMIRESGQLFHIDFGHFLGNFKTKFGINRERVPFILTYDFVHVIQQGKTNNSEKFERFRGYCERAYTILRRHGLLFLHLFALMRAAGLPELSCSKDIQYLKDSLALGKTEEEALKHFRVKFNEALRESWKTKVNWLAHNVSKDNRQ
Sequence of PI3K delta (P27986 whole entry partner): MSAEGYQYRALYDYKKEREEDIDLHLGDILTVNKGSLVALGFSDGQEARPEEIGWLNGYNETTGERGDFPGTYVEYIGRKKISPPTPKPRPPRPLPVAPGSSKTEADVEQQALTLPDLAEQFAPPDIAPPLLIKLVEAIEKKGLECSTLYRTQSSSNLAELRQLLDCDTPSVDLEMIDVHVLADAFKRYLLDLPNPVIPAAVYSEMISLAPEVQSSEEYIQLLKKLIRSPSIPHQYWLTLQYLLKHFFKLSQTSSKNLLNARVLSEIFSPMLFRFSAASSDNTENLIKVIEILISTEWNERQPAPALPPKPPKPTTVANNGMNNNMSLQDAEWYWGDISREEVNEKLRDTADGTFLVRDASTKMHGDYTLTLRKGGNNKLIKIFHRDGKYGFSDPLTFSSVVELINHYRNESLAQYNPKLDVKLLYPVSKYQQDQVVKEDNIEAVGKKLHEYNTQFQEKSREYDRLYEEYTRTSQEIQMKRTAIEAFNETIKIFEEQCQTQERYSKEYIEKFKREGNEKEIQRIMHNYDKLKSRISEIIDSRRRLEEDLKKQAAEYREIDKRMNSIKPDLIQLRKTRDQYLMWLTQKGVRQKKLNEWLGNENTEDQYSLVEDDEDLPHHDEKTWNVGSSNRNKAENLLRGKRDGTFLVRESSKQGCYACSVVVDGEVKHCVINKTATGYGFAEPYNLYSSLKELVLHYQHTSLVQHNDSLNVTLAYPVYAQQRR

By IC50 is commonly meant the concentration that inhibits the measured activity by half. Read a high IC50 as weaker potency in that assay. For the molecule `Cn1cc(-c2nc3c(N4CCN(S(=O)(=O)c5ccccc5)CC4)ncnc3n2C)cn1` [Compound 355, 9-methyl-8-(1-methyl-1H-pyrazol-4-yl)-6-[4-(phenylsulfonyl)piperazin-1-yl]-9H-purine], the IC50 was 250 to 500 nM.
In the case of `Cn1cc(-c2nc3c(N4CCN(c5cccc(OCC(=O)NC6CCCC6)c5)CC4)ncnc3n2C)cn1` [Compound 356, N-cyclopentyl-2-[(3-{4-[9-methyl-8-(1-methyl-1H-pyrazol-4-yl)-9H-purin-6-yl]piperazin-1-yl}phenyl)oxy]acetamide] it was 500 to 1500 nM; in that of `Cn1cc(-c2nc3c(N4CCN(c5cccc(OCC(=O)N6CCCCC6)c5)CC4)ncnc3n2C)cn1` [Compound 357, 9-methyl-8-(1-methyl-1H-pyrazol-4-yl)-6-(4-{3-[(2-oxo-2-piperidin-1-ylethyl)oxy]phenyl}piperazin-1-yl)-9H-purine], 500 to 1500 nM; in that of `Cn1cc(-c2nc3c(N4CCN(c5cccc(OCC(=O)NC6CCCCC6)c5)CC4)ncnc3n2C)cn1` [Compound 358, N-cyclohexyl-2-[(3-{4-[9-methyl-8-(1-methyl-1H-pyrazol-4-yl)-9H-purin-6-yl]piperazin-1-yl}phenyl)oxy]acetamide], 500 to 1500 nM.
`Cn1cc(-c2nc3c(N4CCN(c5cccc(OCC(=O)N6CCCCCC6)c5)CC4)ncnc3n2C)cn1` [Compound 359, 6-(4-{3-[(2-azepan-1-yl-2-oxoethyl)oxy]phenyl}piperazin-1-yl)-9-methyl-8-(1-methyl-1H-pyrazol-4-yl)-9H-purine] returned an IC50 of 250 to 500 nM.
In the case of `Cn1cc(-c2nc3c(N4CCN(c5ccc(OCC6CC6)cc5)CC4)ncnc3n2C)cn1` [Compound 360] it was 500 to 1500 nM.
Molecule `Cn1cc(-c2nc3c(N4CCN(c5ccc(OCc6ccc7ccccc7n6)cc5)CC4)ncnc3n2C)cn1` [Compound 361, 2-{[(4-(4-[9-methyl-8-(1-methyl-1H-pyrazol-4-yl)-9H-purin-6-yl]piperazin-1-yl}phenyl)oxy]methyl)-quinoline] came in with an IC50 of 500 to 1500 nM.
In the case of `Cn1cc(-c2nc3c(N4CCN(c5ccccc5CNC(=O)C5CC5)CC4)ncnc3n2C)cn1` [Compound 362, N-[(2-{4-[9-methyl-8-(1-methyl-1H-pyrazol-4-yl)-9H-purin-6-yl]piperazin-1-yl)phenyl)methyl]cyclopropane-carboxamide] it was 500 to 1500 nM.
With `Cc1cccc(C(=O)NCc2ccccc2N2CCN(c3ncnc4c3nc(-c3cnn(C)c3)n4C)CC2)c1` [Compound 363, 3-methyl-N-[(2-{4-[9-methyl-8-(1-methyl-1H-pyrazol-4-yl)-9H-purin-6-yl]piperazin-1-yl}phenyl)methyl]benzamide], the IC50 was 250 to 500 nM.
`Cn1cc(-c2nc3c(N4CCN(c5ccccc5CNS(=O)(=O)c5ccc6ccccc6c5)CC4)ncnc3n2C)cn1` [Compound 364, N-[(2-{4-[9-methyl-8-(1-methyl-1H-pyrazol-4-yl)-9H-purin-6-yl]piperazin-1-yl}phenyl)methyl]naphthalene-2-sulfonamide] gave an IC50 of 500 to 1500 nM.
In the case of `CN(C)c1ccc(-c2nc3c(N4CCC(n5c(=O)[nH]c6ncccc65)CC4)ncnc3n2C)cn1` [Compound 365, 1-(1-{8-[6-(dimethylamino)pyridin-3-yl]-9-methyl-9H-purin-6-yl}piperidin-4-yl)-1,3-dihydro-2H-imidazo[4,5-b]pyridin-2-one] it was < 50 nM; in that of `CCn1cc(-c2nc3c(N4CCC(c5c[nH]c6ccccc56)CC4)ncnc3n2C)cn1` [Compound 366, 8-(1-ethyl-1H-pyrazol-4-yl)-6-[4-(1H-indol-3-yl)piperidin-1-yl]-9-methyl-9H-purine], 250 to 500 nM; in that of `CCn1cc(-c2nc3c(N4CCN(S(=O)(=O)c5ccccc5)CC4)ncnc3n2C)cn1` [Compound 367, 8-(1-ethyl-1H-pyrazol-4-yl)-9-methyl-6-[4-(phenylsulfonyl)piperazin-1-yl]-9H-purine], 50 to 250 nM.
In the case of `CCn1cc(-c2nc3c(N4CCN(c5ccccc5)CC4)ncnc3n2C)cn1` [Compound 368, 8-(1-ethyl-1H-pyrazol-4-yl)-9-methyl-6-(4-phenylpiperazin-1-yl)-9H-purine] it was 500 to 1500 nM; in that of `Cc1ccc(S(=O)(=O)N2CCN(c3ncnc4c3nc(-c3cnn(C)c3)n4C)CC2)cc1` [Compound 370, 9-methyl-6-{4-[(4-methylphenyl)sulfonyl]-piperazin-1-yl)-8-(1-methyl-1H-pyrazol-4-yl)-9H-purine], 500 to 1500 nM.
For the molecule `Cn1cc(-c2nc3c(N4CCN(S(=O)(=O)Cc5ccccc5)CC4)ncnc3n2C)cn1` [Compound 371, 9-methyl-8-(1-methyl-1H-pyrazol-4-yl)-6-{4-[(phenylmethyl)sulfonyl]piperazin-1-yl)-9H-purine], the IC50 is 250 to 500 nM.
In the case of `Cn1cc(-c2nc3c(N4CCN(S(=O)(=O)c5ccc(F)cc5)CC4)ncnc3n2C)cn1` [Compound 372, 6-{4-[(4-fluorophenyl)sulfonyl]piperazin-1-yl}-9-methyl-8-(1-methyl-1H-pyrazol-4-yl)-9H-purine] it was 500 to 1500 nM.
Turning to `Cn1cc(-c2nc3c(N4CCN(S(=O)(=O)c5ccc(Cl)cc5)CC4)ncnc3n2C)cn1` [Compound 374, 6-{4-[(4-chlorophenyl)sulfonyl]piperazin-1-yl)-9-methyl-8-(1-methyl-1H-pyrazol-4-yl)-9H-purine], the IC50 was in the range of 500 to 1500 nM.
Regarding `Cn1cc(-c2nc3c(N4CCN(S(=O)(=O)c5ccccc5Cl)CC4)ncnc3n2C)cn1` [Compound 375, 6-{4-[(2-chlorophenyl)sulfonyl]piperazin-1-yl}-9-methyl-8-(1-methyl-1H-pyrazol-4-yl)-9H-purine], the IC50 was in the range of 250 to 500 nM.
Then `COc1ccc(OC)c(S(=O)(=O)N2CCN(c3ncnc4c3nc(-c3cnn(C)c3)n4C)CC2)c1` [Compound 376, 6-(4-([2,5-bis(methyloxy)phenyl]sulfonyl}-piperazin-1-yl)-9-methyl-8-(1-methyl-1H-pyrazol-4-yl)-9H-purine], with 250 to 500 nM; and `Cn1cc(-c2nc3c(N4CCN(S(=O)(=O)c5cccc(C(F)(F)F)c5)CC4)ncnc3n2C)cn1` [Compound 377, 9-methyl-8-(1-methyl-1H-pyrazol-4-yl)-6-(4-{[3-(trifluoromethyl)phenyl]sulfonyl}-piperazin-1-yl)-9H-purine], with 250 to 500 nM.
In the case of `Cn1cc(-c2nc3c(N4CCN(S(=O)(=O)c5ccccc5C(F)(F)F)CC4)ncnc3n2C)cn1` [Compound 378] it was 50 to 250 nM.
Turning to `Cn1cc(-c2nc3c(N4CCN(S(=O)(=O)c5cc(Cl)ccc5Cl)CC4)ncnc3n2C)cn1` [Compound 379, 6-{4-[(2,5-dichlorophenyl)sulfonyl]piperazin-1-yl)-9-methyl-8-(1-methyl-1H-pyrazol-4-yl)-9H-purine], the IC50 lay within 50 to 250 nM.
Then `Cn1cc(-c2nc3c(N4CCN(S(=O)(=O)c5ccc(Cl)c(Cl)c5)CC4)ncnc3n2C)cn1` [Compound 380, 6-{4-[(3,4-dichlorophenyl)sulfonyl]piperazin-1-yl}-9-methyl-8-(1-methyl-1H-pyrazol-4-yl)-9H-purine], with 50 to 250 nM.
In the case of `Cn1cc(-c2nc3c(N4CCN(S(=O)(=O)c5ccccc5C#N)CC4)ncnc3n2C)cn1` [Compound 381, 2-({4-[9-methyl-8-(1-methyl-1H-pyrazol-4-yl)-9H-purin-6-yl]piperazin-1-yl}sulfonyl)benzonitrile] it was 250 to 500 nM.
